Measurements: the NIST ThermoML archive (doi:10.1021/acs.jced.5b00798)
± gives the expanded uncertainty stated by the source.

Experiments:
[1] = xn = mol fraction of the nth substance listed; conditions: for surface tension liquid-gas: surface light scattering; for kinematic viscosity: 101 kPa, Liquid, Surface laser light scattering (SLLS)
[2] = for surface tension liquid-gas: surface light scattering; for kinematic viscosity: 101.33 kPa, Liquid, Surface laser light scattering (SLLS)

C=C(F)C(F)(F)F [2,3,3,3-tetrafluoro-1-propene] + FCF
[1]
Conditions	kinematic viscosity [m2/s]	surface tension liquid-gas [mN/m]
293.15 K, x2 = 0.7945	1.28e-07 ± 8.7e-09	7.04 ± 0.11
293.16 K, x2 = 0.5193	1.31e-07 ± 8.8e-09	6.55 ± 0.1
293.21 K, x2 = 0.6988	1.28e-07 ± 8.7e-09	6.9 ± 0.1
303.14 K, x2 = 0.7945	1.18e-07 ± 8.7e-09	5.57 ± 0.08
303.16 K, x2 = 0.5193	1.2e-07 ± 8.7e-09	5.29 ± 0.08
303.2 K, x2 = 0.6988	1.19e-07 ± 8.7e-09	5.49 ± 0.08
313.14 K, x2 = 0.5193	1.09e-07 ± 8.6e-09	4.1 ± 0.06
313.21 K, x2 = 0.6988	1.09e-07 ± 8.6e-09	4.1 ± 0.06
313.26 K, x2 = 0.7945	1.08e-07 ± 8.6e-09	4.14 ± 0.06
323.17 K, x2 = 0.5193	1.01e-07 ± 8.5e-09	2.96 ± 0.04
323.19 K, x2 = 0.6988	9.91e-08 ± 8.5e-09	2.82 ± 0.04
323.2 K, x2 = 0.7945	9.82e-08 ± 8.5e-09	2.83 ± 0.04
333.14 K, x2 = 0.5193	9.15e-08 ± 8.5e-09	1.91 ± 0.03
333.21 K, x2 = 0.6988	8.98e-08 ± 8.4e-09	1.66 ± 0.03
333.21 K, x2 = 0.7945	8.85e-08 ± 8.4e-09	1.62 ± 0.03
343.14 K, x2 = 0.5193	8.18e-08 ± 9.1e-09	0.97 ± 0.02
343.16 K, x2 = 0.6988	7.93e-08 ± 9e-09	0.66 ± 0.01
343.18 K, x2 = 0.7945	7.71e-08 ± 8.9e-09	0.59 ± 0.01

FCF [difluoromethane]
[2]
Conditions	kinematic viscosity [m2/s]	surface tension liquid-gas [mN/m]
293.15 K	1.29e-07 ± 8.7e-09	7.4 ± 0.11
303.15 K	1.17e-07 ± 8.7e-09	5.94 ± 0.09
313.07 K	1.08e-07 ± 8.6e-09	4.35 ± 0.07
323.15 K	9.98e-08 ± 8.5e-09	2.96 ± 0.05
333.14 K	9.3e-08 ± 8.5e-09	1.67 ± 0.03
343.16 K	7.95e-08 ± 8.4e-09	0.57 ± 0.01
348.18 K	7.5e-08 ± 8.8e-09	0.14 ± 0.01

F/C=C/C(F)(F)F [trans-1,3,3,3-tetrafluoropropene] + FCF
[1]
Conditions	kinematic viscosity, x2 = 0.2985 [m2/s]	kinematic viscosity, x2 = 0.5697 [m2/s]	kinematic viscosity, x2 = 0.7501 [m2/s]	surface tension liquid-gas, x2 = 0.2985 [mN/m]	surface tension liquid-gas, x2 = 0.5697 [mN/m]	surface tension liquid-gas, x2 = 0.7501 [mN/m]
293.14 K	–	1.47e-07 ± 8.9e-09	1.37e-07 ± 8.8e-09	–	–	–
293.16 K	1.61e-07 ± 9e-09	–	–	8.46 ± 0.13	8.02 ± 0.12	7.74 ± 0.12
303.16 K	–	1.34e-07 ± 8.8e-09	1.28e-07 ± 8.7e-09	–	–	–
303.17 K	1.43e-07 ± 8.9e-09	–	–	7.17 ± 0.11	6.63 ± 0.1	6.3 ± 0.09
313.12 K	–	1.22e-07 ± 8.7e-09	1.14e-07 ± 8.6e-09	–	–	–
313.13 K	1.32e-07 ± 8.8e-09	–	–	5.93 ± 0.09	5.34 ± 0.08	4.91 ± 0.07
323.13 K	1.23e-07 ± 8.7e-09	–	–	4.75 ± 0.07	4.15 ± 0.06	3.62 ± 0.05
323.14 K	–	1.13e-07 ± 8.6e-09	1.04e-07 ± 8.6e-09	–	–	–
333.14 K	–	1.03e-07 ± 8.5e-09	9.75e-08 ± 8.5e-09	–	–	–
333.16 K	1.11e-07 ± 8.6e-09	–	–	3.62 ± 0.05	2.89 ± 0.04	2.41 ± 0.04
343.11 K	–	9.31e-08 ± 9.5e-09	8.96e-08 ± 9.4e-09	–	–	–
343.12 K	1.02e-07 ± 9.9e-09	–	–	2.54 ± 0.04	1.83 ± 0.03	1.32 ± 0.02
348.17 K	9.63e-08 ± 9.7e-09	–	–	2.06 ± 0.03	1.34 ± 0.02	0.83 ± 0.01
348.19 K	–	8.74e-08 ± 9.3e-09	8.58e-08 ± 9.2e-09	–	–	–
